{"source": "ChEMBL document CHEMBL2046422", "about": "“Structure-activity relationship of nonacidic quinazolinone inhibitors of human microsomal prostaglandin synthase 1 (mPGES 1)” (J Med Chem, 2012)", "target": "T1, Prostaglandin E synthase (Homo sapiens) (UniProt O14684)", "T1 sequence (whole entry)": "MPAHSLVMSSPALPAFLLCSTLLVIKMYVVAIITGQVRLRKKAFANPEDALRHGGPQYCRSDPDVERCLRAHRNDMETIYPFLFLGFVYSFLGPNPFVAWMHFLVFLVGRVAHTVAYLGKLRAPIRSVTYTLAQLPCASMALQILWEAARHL", "assay": "Inhibition of mPGES-1 in IL1beta and TNFalpha-stimulated human HeLa cells assessed as PGE2 level at 1 uM after 24 hrs by LC-MS/MS analysis relative to isolated enzyme", "data": [{"smiles": "CCCc1nc2ccc(NC(=O)c3ccccc3Cl)cc2c(=O)n1Cc1ccc(-c2cccc(OC)c2)cc1", "values": [{"measurement": "potency shift", "result": 28, "unit": "%"}]}]}
